Assay results from patent US6660742B2, “Compositions and methods of the use thereof achiral analogues of CC-1065 and the duocarmycins” (priority 2000, dated 2003).
Where “and” joins values, the source holds several entries; their conditions need not be identical. Identical values can stand only once. Like-named read-outs stand apart in the source and are kept apart here.

Tests used:
[1] = tested on: PC-3; assay: NCI screen, PC-3 (Prostrate Cancer)
Protocol: (§1) The compounds of this invention were also tested against the panel of 60 human cancer cell lines at the National Cancer Institute, Bethesda, Md. […] The cytrotoxicity studies were conducted using a 48 hour exposure, and measuring the optical density of sulforhodamide B-derived color.

[2] = tested on: KM12
[3] = tested on: A549/ATCC
[4] = tested on: NCI-H522; assay: NCI screen, NCI-H522 (Non-Small Cell Lung Cancer)
Protocol: as §1

[5] = tested on: SK-OV-3; assay: NCI screen, SK-OV-3 (Ovarian Cancer)
Protocol: as §1

[6] = tested on: HS 578T; assay: NCI screen, HS 578T (Breast Cancer)
Protocol: (§2) The compounds of this invention were also tested against the panel of 60 human cancer cell lines at the National Cancer Institute, Bethesda, Md. (44). The cytrotoxicity studies were conducted using a 48 hour exposure, and measuring the optical density of sulforhodamide B-derived color.

[7] = tested on: HCC-2998; assay: NCI screen, HCC-2998 (Colon Cancer)
Protocol: as §1

[8] = tested on: panel of 60 human cancer cell lines; assay: NCI in-vitro cytotoxicity screen, whole panel; format: cell-based
[9] = tested on: BT-549; assay: NCI screen, BT-549 (Breast Cancer)
Protocol: as §2

[10] = tested on: NCI-H23; assay: NCI screen, NCI-H23 (Non-Small Cell Lung Cancer)
Protocol: as §1

[11] = tested on: SW-620; assay: NCI screen, SW-620 (Colon Cancer); format: cell-based, human
Protocol: as §1

[12] = tested on: LOX IMVI; assay: NCI screen, LOX IMVI (Melanoma)
Protocol: as §2

[13] = tested on: SNB-75; assay: NCI screen, SNB-75 (CNS Cancer)
Protocol: as §1

[14] = tested on: OVCAR-8; assay: NCI screen, OVCAR-8 (Ovarian Cancer)
Protocol: as §2

[15] = tested on: M14; assay: NCI screen, M14 (Melanoma)
Protocol: as §1

[16] = tested on: HT29; assay: NCI screen, HT29 (Colon Cancer)
Protocol: as §1

[17] = tested on: MCF7/ADR-RES; assay: NCI screen, MCF7/ADR-RES (Breast Cancer); format: cell-based, human; conditions: MCF7/ADR-RES
Protocol: as §1

[18] = tested on: CAKI-1; assay: NCI screen, CAKI-1 (Renal Cancer)
Protocol: as §1

[19] = tested on: RXF 393; assay: NCI screen, RXF 393 (Renal Cancer)
Protocol: as §1

[20] = tested on: K-562; assay: NCI screen, K-562 (Leukemia)
Protocol: as §1

[21] = tested on: MOLT-4; assay: NCI screen, MOLT-4 (Leukemia)
Protocol: as §1

[22] = tested on: ACHN; format: cell-based, human

O=C(Nc1cc(O)ccc1CCCl)c1cc2cc(NC(=O)c3cc4ccccc4o3)ccc2[nH]1 [Compound 1, 4-(2-Chloroethyl)-3-[5-(5-benzofuran-2-carboxamido)indole-2-carboxamido]phenol]
GI50 [1]: 969 nM
TGI [1]: 3.99E−06 Molar
Percent Growth ([1]; Log10 Concentration −4.0): −99%
Percent Growth ([1]; Log10 Concentration −7.0): 98%
Percent Growth ([1]; Log10 Concentration −8.0): 96%
GI50 [2]: 18.8 µM
Percent Growth [2]: 93%
TGI [2]: 3.50E−05 Molar
GI50 [3]: 1980 nM
TGI [3]: 6.58E−06 Molar
Percent Growth ([3]; Log10 Concentration −4.0): −100%
Percent Growth ([3]; Log10 Concentration −6.0): 78%
Percent Growth ([3]; Log10 Concentration −8.0): 96%
GI50 [4]: 933 nM
TGI [4]: 3.00E−06 Molar
Percent Growth ([4]; Log10 Concentration −4.0): −80%
Percent Growth ([4]; Log10 Concentration −7.0): 99%
Percent Growth ([4]; Log10 Concentration −8.0): 98%
GI50 [5]: 2930 nM
TGI [5]: 7.64E−06 Molar
Percent Growth ([5]; Log10 Concentration −4.0): −99%
Percent Growth ([5]; Log10 Concentration −7.0): 102%
Percent Growth [6]: 89% and 77%
GI50 ([6]; HS 578T): 11.8 µM
TGI ([6]; HS 578T): 3.96E−05 Molar
Percent Growth ([6]; HS 578T, Log10 Concentration −4.0): −38%
Percent Growth ([6]; HS 578T, Log10 Concentration −5.0): 57%
Percent Growth ([6]; HS 578T, Log10 Concentration −7.0): 92%
GI50 [7]: 1760 nM
TGI [7]: 3.56E−06 Molar
Percent Growth ([7]; Log10 Concentration −4.0): −97%
Percent Growth ([7]; Log10 Concentration −7.0): 97%
Percent Growth ([7]; Log10 Concentration −8.0): 96%
range of activity ([8]; 48 hour exposure): micromolar range
activity against leukemia cells ([8]; leukemia cells): none of these compounds showed much activity
activity against melanoma cells ([8]; melanoma cells): active
activity against solid tumors cells ([8]; solid tumors cells): strong activity
Percent Growth [9]: 110%
GI50 ([9]; BT-549): 3.6 µM
TGI ([9]; BT-549): 2.05E−05 Molar
Percent Growth ([9]; BT-549, Log10 Concentration −4.0): −20%
Percent Growth ([9]; BT-549, Log10 Concentration −5.0): 9%
Percent Growth ([9]; BT-549, Log10 Concentration −6.0): 101%
Percent Growth ([9]; BT-549, Log10 Concentration −7.0): 103%
GI50 [10]: 1670 nM
TGI [10]: 3.38E−06 Molar
Percent Growth ([10]; Log10 Concentration −4.0): −61%
GI50 [11]: 2010 nM
TGI [11]: 8.19E−06 Molar
Percent Growth ([11]; Log10 Concentration −4.0): −66%
Percent Growth ([11]; Log10 Concentration −8.0): 96%
Percent Growth [12]: 106%
GI50 ([12]; LOX IMVI): 2430 nM
TGI ([12]; LOX IMVI): 6.93E−06 Molar
Percent Growth ([12]; LOX IMVI, Log10 Concentration −4.0): −70%
Percent Growth ([12]; LOX IMVI, Log10 Concentration −5.0): −17%
Percent Growth ([12]; LOX IMVI, Log10 Concentration −6.0): 92%
Percent Growth ([12]; LOX IMVI, Log10 Concentration −7.0): 101%
Percent Growth [13]: 65% and 56% and 93%
GI50 ([13]; SNB-75): 18.6 µM
TGI ([13]; SNB-75): 3.32E−05 Molar
Percent Growth ([13]; SNB-75, Log10 Concentration −4.0): −96%
Percent Growth [14]: −61%
GI50 ([14]; OVCAR-8): 1320 nM
TGI ([14]; OVCAR-8): 3.28E−06 Molar
Percent Growth ([14]; OVCAR-8, Log10 Concentration −4.0): −63%
Percent Growth ([14]; OVCAR-8, Log10 Concentration −6.0): 65%
Percent Growth ([14]; OVCAR-8, Log10 Concentration −7.0): 94%
Percent Growth ([14]; OVCAR-8, Log10 Concentration −8.0): 94%
Percent Growth [15]: −75%
GI50 ([15]; M14): 1490 nM
TGI ([15]; M14): 3.19E−06 Molar
Percent Growth ([15]; M14, Log10 Concentration −4.0): −99%
Percent Growth ([15]; M14, Log10 Concentration −6.0): 76%
Percent Growth ([15]; M14, Log10 Concentration −7.0): 91%
Percent Growth ([15]; M14, Log10 Concentration −8.0): 93%
GI50 [16]: 2290 nM
TGI [16]: 1.15E−05 Molar
Percent Growth ([16]; Log10 Concentration −4.0): −51%
Percent Growth ([16]; Log10 Concentration −8.0): 96%
GI50 [17]: 1650 nM
TGI [17]: 3.79E−06 Molar
Percent Growth ([17]; Log10 Concentration −4.0): −55%
Percent Growth ([17]; Log10 Concentration −5.0): −58%
Percent Growth ([17]; Log10 Concentration −6.0): 80%
Percent Growth ([17]; Log10 Concentration −7.0): 97%
Percent Growth ([17]; Log10 Concentration −8.0): 93%
Percent Growth [18]: 87% and 82%
GI50 ([18]; CAKI-1): 2300 nM
TGI ([18]; CAKI-1): 7.19E−06 Molar
Percent Growth ([18]; CAKI-1, Log10 Concentration −4.0): −95%
Percent Growth ([18]; CAKI-1, Log10 Concentration −5.0): −14%
Percent Growth ([18]; CAKI-1, Log10 Concentration −8.0): 95%
GI50 [19]: 982 nM
TGI [19]: 2.18E−06 Molar
Percent Growth ([19]; Log10 Concentration −4.0): −94%
Percent Growth ([19]; Log10 Concentration −5.0): −97%
Percent Growth ([19]; Log10 Concentration −6.0): 50%
Percent Growth ([19]; Log10 Concentration −7.0): 74%
Percent Growth ([19]; Log10 Concentration −8.0): 104%
GI50 [20]: 2880 nM
TGI [20]: 9.59E−06 Molar
Percent Growth ([20]; Log10 Concentration −4.0): −5%
GI50 [21]: 1140 nM
Percent Growth ([21]; Log10 Concentration −4.0): 4%
GI50 [22]: 1530 nM
TGI [22]: 5.55E−06 Molar
